pIC50: −log10 of the molar value.

As usually defined, the pIC50 is the negative decadic logarithm of the IC50, by convention in mol/L.

The assay deals with SYK (SYK(2-635)) (Homo sapiens (Human), UniProt P43405). The assay is described as follows: SYK enzyme assay (chip based microfluidic mobility shift assay). The assay is classed as biochemical. To be noted: SYK kinase, 4 μM ATP/peptide solution, 30° C., 60 minutes, Caliper mobility shift. The method, then:
A number of compounds of the present invention were assayed in a chip based microfluidic mobility shift assay. All assays were performed in 384 well microtiter plates. Each assay plate contained 8-point serial dilutions for 40 test compounds, as well as four 8-point serial dilutions of staurosporine as reference compound, plus 16 high- and 16 low controls. Liquid handling and incubation steps were done on a Thermo CatX workstation equipped with a Innovadyne Nanodrop Express. Between pipetting steps, tips were cleaned in wash cycles using wash buffer. The assay plates were prepared by addition of 50 nl per well of compound solution in 90% DMSO. The kinase reactions were started by stepwise addition of 4.5 μl per well of peptide/ATP-solution (50 mM HEPES, pH 7.5, 1 mM DTT, 0.02% Tween20, 0.02% BSA, 0.6% DMSO, 10 mM beta-glycerophosphate, and 10 μM sodium orthovanadate, 1 mM MgCl2, 3 mM MnCl2, 4 μM ATP, 4 μM peptide (5-Fluo-Ahx-GAPDYENLQELNKK-Amid) and 4.5 μl per well of enzyme solution (50 mM HEPES, pH 7.5, 1 mM DTT, 0.02% Tween20, 0.02% BSA, 0.6% DMSO, 10 mM beta-glycerophosphate, and 10 μM sodium orthovanadate, 1 mM MgCl2, 3 mM MnCl2, 4 nM SYK (SYK(2-635), produced in-house from insect cells). Kinase reactions were incubated at 30° C. for 60 minutes and subsequently terminated by addition of 16 μl per well of stop solution (100 mM HEPES pH 7.5, 5% DMSO, 0.1% Caliper coating reagent, 10 mM EDTA, and 0.015% Brij35). Plates with terminated kinase reactions were transferred to the Caliper LC3000 workstations for reading. Phosphorylated and unphosphorylated peptides were separated using the Caliper microfluidic mobility shift technology. Briefly, samples from terminated kinase reactions were applied to the chip. Analytes are transported through the chip by constant buffer flow and the migration of the substrate peptide is monitored by the fluorescence signal of its label. Phosphorylated peptide (product) and unphosphorylated peptide (substrate) are separated in an electric field by their charge/mass ratio. Kinase activities were calculated from the amounts of formed phospho-peptide. IC50 values were determined from percent inhibition values at different compound concentrations by non-linear regression analysis.
Test compounds were dissolved in DMSO (10 mM) and transferred into 1.4 mL flat bottom or V-shaped Matrix tubes carrying a unique 2D matrix. The stock solutions were stored at […] if not used immediately. For the test procedure the vials were defrosted and identified by a scanner whereby a working sheet was generated that guided the subsequent working steps.
Compound dilutions were made in 96 well plates. This format enabled the assay of maximally 40 individual test compounds at 8 concentrations (single points) including 4 reference compounds. The dilution protocol included the production of “pre-dilution plates”, “master plates” and “assay plates”.
Pre-dilution plates: 96 polypropylene well plates were used as pre-dilution plates. A total of 4 pre-dilution plates were prepared including 10 test compounds each on the plate positions A1-A10, one standard compound at A11 and one DMSO control at A12. All dilution steps were done on a HamiltonSTAR robot.
Master plates: 30 μL of individual compound dilutions including standard compound and controls of the 4 “pre-dilution plates” were transferred into a 384 “master plate” including the following concentrations 1′810, 362, 72.5, […], 14.5, 2.9, 0.58 and 0.12 μM, respectively in 90% of DMSO.
Assay plates: Identical “assay plates” were then prepared by pipetting 50 nL each of compound dilutions of the “master plates” into 384-well “assay plates” by means of a HummingBird 384-channel dispenser. These plates were used directly for the assay which was performed in a total volume of 9.05 μL. This led to a final compound concentration of 10, 2.0, 0.4, 0.08, 0.016, 0.0032, 0.00064 and 0.000128 μM and a final DMSO concentration of 0.5% in the assay.
As for `N[C@H]1CCCC[C@H]1Nc1cc2cn[nH]c(=O)c2c(Nc2cccc3sccc23)n1` [Example 2.7, 7-((1R,2S)-2-Amino-cyclohexylamino)-5-(benzo[b]thiophen-4-ylamino)-3H-pyrido[3,4-d]pyridazin-4-one], the negative-log IC50 (pIC50) is 8.68.

For `Cc1c[nH]c2c(Nc3nc(N[C@@H]4CCOC[C@@H]4N)cc4cn[nH]c(=O)c34)cc(F)cc12` [Example 3.3, 7-((3R,4R)-3-Amino-tetrahydro-pyran-4-ylamino)-5-(5-fluoro-3-methyl-1H-indol-7-ylamino)-3H-pyrido[3,4-d]pyridazin-4-one], the pIC50 was 8.70.

As for `N[C@H]1COCC[C@H]1Nc1cc2cn[nH]c(=O)c2c(Nc2cccc3sccc23)n1` [Example 3.2, 7-((3R,4R)-3-Amino-tetrahydro-pyran-4-ylamino)-5-(benzo[b]thiophen-4-ylamino)-3H-pyrido[3,4-d]pyridazin-4-one], the pIC50 was 8.74.

Turning to `N#Cc1c[nH]c2c(Nc3nc(N[C@@H]4CCCC[C@@H]4N)cc4cn[nH]c(=O)c34)cccc12` [Example 2.14, 7-[7-((1R,2S)-2-Amino-cyclohexylamino)-4-oxo-3,4-dihydro-pyrido[3,4-d]pyridazin-5-ylamino]-1H-indole-3-carbonitrile], the pIC50 is 8.10.

Consider `N[C@H]1COCC[C@H]1Nc1cc2cn[nH]c(=O)c2c(Nc2cccc3cc[nH]c23)n1` [Example 3.4, 7-((3R,4R)-3-Amino-tetrahydro-pyran-4-ylamino)-5-(1H-indol-7-ylamino)-3H-pyrido[3,4-d]pyridazin-4-one], for which the pIC50 was 7.49.

For the compound `Cc1c[nH]c2c(Nc3nc(N[C@@H]4CCOC[C@@H]4N)cc4cn[nH]c(=O)c34)cccc12` [Example 3.1, 7-((3R,4R)-3-Amino-tetrahydro-pyran-4-ylamino)-5-(3-methyl-1H-indol-7-ylamino)-3H-pyrido[3,4-d]pyridazin-4-one], the pIC50 was 8.05.

Turning to `N[C@H]1CCCC[C@H]1Nc1cc2cn[nH]c(=O)c2c(Nc2cccc3occc23)n1` [Example 2.6, 7-((1R,2S)-2-Amino-cyclohexylamino)-5-(benzofuran-4-ylamino)-3H-pyrido[3,4-d]pyridazin-4-one], the pIC50 was 8.70.

As to `N[C@H]1CCCC[C@H]1Nc1cc2cn[nH]c(=O)c2c(Nc2ccc3nccnc3c2)n1` [Example 2.18, 7-((1R,2S)-2-Amino-cyclohexylamino)-5-(quinoxalin-6-ylamino)-3H-pyrido[3,4-d]pyridazin-4-one], the pIC50 was 7.59.

For the compound `Cc1c[nH]c2c(Nc3nc(N[C@@H]4CCCC[C@@H]4N)c(F)c4cn[nH]c(=O)c34)cc(F)cc12` [Example 1.1, 7-((1R,2S)-2-Amino-cyclohexylamino)-8-fluoro-5-(5-fluoro-3-methyl-1H-indol-7-ylamino)-3H-pyrido[3,4-d]pyridazin-4-one], the pIC50 was 8.70.

For the compound `Cc1c[nH]c2c(Nc3nc(N[C@@H]4CCCC[C@@H]4N)cc4cn[nH]c(=O)c34)cccc12` [Example 2.1, 7-((1R,2S)-2-Amino-cyclohexylamino)-5-(3-methyl-1H-indol-7-ylamino)-3H-pyrido[3,4-d]pyridazin-4-one], the pIC50 is 8.80.

For `N[C@H]1CCCC[C@H]1Nc1cc2cn[nH]c(=O)c2c(Nc2ccc3cccnc3c2)n1` [Example 2.19, 7-((1R,2S)-2-Amino-cyclohexylamino)-5-(quinolin-7-ylamino)-3H-pyrido[3,4-d]pyridazin-4-one], the negative-log IC50 (pIC50) was 7.38.

`N[C@H]1CCCC[C@H]1Nc1cc2cn[nH]c(=O)c2c(Nc2ccc3ncccc3c2)n1` [Example 2.5, 7-((1R,2S)-2-Amino-cyclohexylamino)-5-(quinolin-6-ylamino)-3H-pyrido[3,4-d]pyridazin-4-one]: the pIC50 is 8.80.

`N[C@H]1CCCC[C@H]1Nc1cc2cn[nH]c(=O)c2c(Nc2cccc3cccnc23)n1` [Example 2.20, 7-((1R,2S)-2-Amino-cyclohexylamino)-5-(quinolin-8-ylamino)-3H-pyrido[3,4-d]pyridazin-4-one]: the pIC50 was 7.35.

`Cc1ccc2c(Nc3nc(N[C@@H]4CCCC[C@@H]4N)cc4cn[nH]c(=O)c34)cccc2n1` [Example 2.8, 7-((1R,2S)-2-Amino-cyclohexylamino)-5-(2-methyl-quinolin-5-ylamino)-3H-pyrido[3,4-d]pyridazin-4-one]: the pIC50 was 8.64.

As for `Cc1ccc(Nc2nc(N[C@@H]3CCCC[C@@H]3N)cc3cn[nH]c(=O)c23)c2cccnc12` [Example 2.13, 7-((1R,2S)-2-Amino-cyclohexylamino)-5-(8-methyl-quinolin-5-ylamino)-3H-pyrido[3,4-d]pyridazin-4-one], the negative logarithm of the IC50 (pIC50) is 8.15.

Regarding `N[C@H]1CCCC[C@H]1Nc1cc2cn[nH]c(=O)c2c(Nc2cccc3[nH]ncc23)n1` [Example 2.10, 7-((1R,2S)-2-Amino-cyclohexylamino)-5-(1H-indazol-4-ylamino)-3H-pyrido[3,4-d]pyridazin-4-one], the pIC50 was 8.28.

Consider `N[C@H]1CCCC[C@H]1Nc1nc(Nc2cccc3ncccc23)c2c(=O)[nH]ncc2c1F` [Example 1.2, 7-((1R,2S)-2-Amino-cyclohexylamino)-8-fluoro-5-(quinolin-5-ylamino)-3H-pyrido[3,4-d]pyridazin-4-one], for which the pIC50 was 7.36.

In the case of `Cn1cc2c(Nc3nc(N[C@@H]4CCCC[C@@H]4N)cc4cn[nH]c(=O)c34)cccc2n1` [Example 2.3, 7-((1R,2S)-2-Amino-cyclohexylamino)-5-(2-methyl-2H-indazol-4-ylamino)-3H-pyrido[3,4-d]pyridazin-4-one], the pIC50 was 8.96.

On to `N[C@H]1CCCC[C@H]1Nc1cc2cn[nH]c(=O)c2c(Nc2cccc3ncccc23)n1` [Example 2.16, 7-((1R,2S)-2-Amino-cyclohexylamino)-5-(quinolin-5-ylamino)-3H-pyrido[3,4-d]pyridazin-4-one], for which the negative-log IC50 (pIC50) was 8.05.

Consider `Cc1c[nH]c2c(Nc3nc(N[C@@H]4CCCC[C@@H]4N)cc4cn[nH]c(=O)c34)cc(F)cc12` [Example 2.4, 7-((1R,2S)-2-Amino-cyclohexylamino)-5-(5-fluoro-3-methyl-1H-indol-7-ylamino)-3H-pyrido[3,4-d]pyridazin-4-one], for which the pIC50 was 8.89.

As for `Cc1cc2c(Nc3nc(N[C@@H]4CCCC[C@@H]4N)cc4cn[nH]c(=O)c34)cccc2[nH]1` [Example 2.17, 7-((1R,2S)-2-Amino-cyclohexylamino)-5-(2-methyl-1H-indol-4-ylamino)-3H-pyrido[3,4-d]pyridazin-4-one], the pIC50 was 7.80.

`N[C@H]1CCCC[C@H]1Nc1cc2cn[nH]c(=O)c2c(Nc2cnc3ccccc3c2)n1` [Example 2.11, 7-((1R,2S)-2-Amino-cyclohexylamino)-5-(quinolin-3-ylamino)-3H-pyrido[3,4-d]pyridazin-4-one]: the pIC50 was 8.27.

Consider `Cc1ccc(Nc2nc(N[C@@H]3CCCC[C@@H]3N)cc3cn[nH]c(=O)c23)c2cc[nH]c12` [Example 2.15, 7-((1R,2S)-2-Amino-cyclohexylamino)-5-(7-methyl-1H-indol-4-ylamino)-3H-pyrido[3,4-d]pyridazin-4-one], for which the negative logarithm of the IC50 (pIC50) is 8.05.

With `Cn1ccc2c(Nc3nc(N[C@@H]4CCCC[C@@H]4N)cc4cn[nH]c(=O)c34)cccc21` [Example 2.2, 7-((1R,2S)-2-Amino-cyclohexylamino)-5-(1-methyl-1H-indol-4-ylamino)-3H-pyrido[3,4-d]pyridazin-4-one], the pIC50 is 9.22.

As for `N[C@H]1CCCC[C@H]1Nc1cc2cn[nH]c(=O)c2c(Nc2cccc3cc[nH]c23)n1` [Example 2.12, 7-((1R,2S)-2-Amino-cyclohexylamino)-5-(1H-indol-7-ylamino)-3H-pyrido[3,4-d]pyridazin-4-one], the pIC50 was 8.15.
